Test results from patent US9815864B2, “Substituted nucleosides, nucleotides and analogs thereof” (Alios BioPharma, Inc., priority 2013, dated 2017).
pIC50: −log10 of the molar value.

Biological target: Norovirus polymerase (NoVpol, genotype II) (Lordsdale virus, UniProt P54634)
Assay: biochemical
Settings: not given

Sequence of Norovirus polymerase (NoVpol, genotype II) (P54634 1190-1699 limits assumed): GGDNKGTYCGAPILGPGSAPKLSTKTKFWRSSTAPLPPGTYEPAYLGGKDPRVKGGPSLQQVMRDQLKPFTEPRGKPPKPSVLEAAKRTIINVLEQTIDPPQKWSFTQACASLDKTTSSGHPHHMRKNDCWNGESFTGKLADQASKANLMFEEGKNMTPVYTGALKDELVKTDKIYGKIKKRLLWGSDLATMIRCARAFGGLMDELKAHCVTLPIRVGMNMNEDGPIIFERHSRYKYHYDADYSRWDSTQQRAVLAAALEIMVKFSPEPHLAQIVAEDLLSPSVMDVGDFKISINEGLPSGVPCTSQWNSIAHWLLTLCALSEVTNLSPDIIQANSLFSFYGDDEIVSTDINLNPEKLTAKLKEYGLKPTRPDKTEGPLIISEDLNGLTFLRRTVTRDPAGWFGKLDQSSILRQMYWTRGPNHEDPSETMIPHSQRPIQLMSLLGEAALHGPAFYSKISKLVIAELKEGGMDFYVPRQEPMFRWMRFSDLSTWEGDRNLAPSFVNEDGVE

Compound	pIC50
CC[C@]1(COP(=O)(O)OP(=O)(O)OP(=O)(O)O)O[C@@H](n2ccc(=O)[nH]c2=O)[C@H](F)[C@@H]1O [Compound 37a]	5.00 to 6.00
Nc1ccn([C@@H]2O[C@](CF)(COP(=O)(O)OP(=O)(O)OP(=O)(O)O)[C@@H](O)[C@H]2F)c(=O)n1 [Compound 56c]	> 6.00
C[C@@]1(O)[C@H](O)[C@@](CF)(CO[P@](O)(=S)OP(=O)(O)OP(=O)(O)O)O[C@H]1n1ccc(=O)[nH]c1=O [Compound 171a]	> 6.00
C[C@]1(O)C(n2ccc(=O)[nH]c2=O)O[C@H](COP(=O)(O)OP(=O)(O)OP(=O)(O)O)[C@H]1O (some centres unmarked) [Compound 260a]	5.00 to 6.00
C#C[C@@]1(O)[C@H](O)[C@@H](COP(O)(=S)OP(=O)(O)OP(=O)(O)O)O[C@H]1n1ccc(=O)[nH]c1=O (some centres unmarked) [Compound 286a]	5.00 to 6.00

Same assay, conditions: 50 nM recombinant enzyme, 2.5 hours at 30° C.; read-out: IC50

Compound	pIC50
CCC[C@]1(CO)O[C@@H](n2ccc(N)nc2=O)[C@H](F)[C@@H]1O [Compound 21a]	5.00 to 6.00
C=C[C@]1(COP(=O)(O)OP(=O)(O)OP(=O)(O)O)O[C@@H](n2cnc3c(=O)[nH]c(N)nc32)[C@H](F)[C@@H]1O [Compound 34a]	> 6.00
C#C[C@]1(COP(=O)(O)OP(=O)(O)OP(=O)(O)O)O[C@@H](n2cnc3c(=O)[nH]c(N)nc32)[C@H](F)[C@@H]1O [Compound 34b]	> 6.00
N#C[C@]1(COP(=O)(O)OP(=O)(O)OP(=O)(O)O)O[C@@H](n2cnc3c(=O)[nH]c(N)nc32)[C@H](F)[C@@H]1O [Compound 34e]	> 6.00
C=C[C@]1(COP(=O)(O)OP(=O)(O)OP(=O)(O)O)O[C@@H](n2ccc(N)nc2=O)[C@H](F)[C@@H]1O [Compound 36b]	5.00 to 6.00
C#C[C@]1(COP(=O)(O)OP(=O)(O)OP(=O)(O)O)O[C@@H](n2ccc(N)nc2=O)[C@H](F)[C@@H]1O [Compound 36c]	5.00 to 6.00
CO[C@]1(COP(=O)(O)OP(=O)(O)OP(=O)(O)O)O[C@@H](n2ccc(N)nc2=O)[C@H](F)[C@@H]1O [Compound 36d]	5.00 to 6.00
O=c1ccn([C@@H]2O[C@](CCl)(COP(=O)(O)OP(=O)(O)OP(=O)(O)O)[C@@H](O)[C@H]2F)c(=O)[nH]1 [Compound 56a]	5.00 to 6.00
Cc1cn([C@@H]2O[C@](CCl)(COP(=O)(O)OP(=O)(O)OP(=O)(O)O)[C@@H](O)[C@H]2F)c(=O)nc1N [Compound 97d]	5.00 to 6.00
Nc1nc(=O)n([C@@H]2O[C@](CCl)(COP(=O)(O)OP(=O)(O)OP(=O)(O)O)[C@@H](O)[C@H]2F)cc1F [Compound 97g]	5.00 to 6.00
O=c1[nH]cnc2c1ncn2[C@@H]1O[C@](CCl)(COP(=O)(O)OP(=O)(O)OP(=O)(O)O)[C@@H](O)[C@H]1F [Compound 98b]	5.00 to 6.00
Nc1ncnc2c1ncn2[C@@H]1O[C@](CF)(COP(=O)(O)OP(=O)(O)OP(=O)(O)O)[C@@H](O)[C@H]1F [Compound 98c]	> 6.00
O=c1ccn([C@@H]2O[C@](CF)(COP(=O)(O)OP(=O)(O)OP(=O)(O)O)[C@@H](O)[C@H]2F)c(=O)[nH]1 [Compound 111a]	> 6.00
[N-]=[N+]=NC[C@]1(COP(=O)(O)OP(=O)(O)OP(=O)(O)O)O[C@@H](n2ccc(=O)[nH]c2=O)[C@H](F)[C@@H]1O [Compound 114a]	> 6.00
[N-]=[N+]=NC[C@]1(COP(=O)(O)OP(=O)(O)OP(=O)(O)O)O[C@@H](n2ccc(N)nc2=O)[C@H](F)[C@@H]1O [Compound 115a]	5.00 to 6.00
Nc1nc2c(ncn2[C@@H]2O[C@](CCl)(COP(=O)(O)OP(=O)(O)OP(=O)(O)O)[C@@H](O)[C@H]2F)c(=O)[nH]1 [Compound 116a]	5.00 to 6.00
C[C@]1(O)[C@H](n2ccc(=O)[nH]c2=O)O[C@](F)(COP(=O)(O)OP(=O)(O)OP(=O)(O)O)[C@H]1O [Compound 122a]	5.00 to 6.00
[N-]=[N+]=NC[C@]1(COP(=O)(O)OP(=O)(O)OP(=O)(O)O)O[C@@H](n2cnc3c(N)ncnc32)[C@H](F)[C@@H]1O [Compound 212a]	5.00 to 6.00
C[C@]1(F)[C@H](n2cnc3c(=O)[nH]c(N)nc32)O[C@](F)(COP(=O)(O)OP(=O)(O)OP(=O)(O)O)[C@H]1O [Compound 214a]	> 6.00
C[C@@]1(O)[C@H](O)[C@@](CF)(COP(=O)(O)OP(=O)(O)OP(=O)(O)O)O[C@H]1n1cnc2c(=O)[nH]c(N)nc21 [Compound 216a]	> 6.00
C[C@]1(O)[C@H](n2ccc(=O)[nH]c2=O)O[C@](C)(COP(=O)(O)OP(=O)(O)OP(=O)(O)O)[C@H]1O [Compound 217a]	> 6.00
C#C[C@@]1(O)[C@H](O)[C@@](CF)(COP(=O)(O)OP(=O)(O)OP(=O)(O)O)O[C@H]1n1ccc(=O)[nH]c1=O [Compound 219a]	> 6.00
C=C[C@]1(COP(=O)(O)OP(=O)(O)OP(=O)(O)O)O[C@@H](n2ccc(=O)[nH]c2=O)C(F)(F)[C@@H]1O [Compound 221a]	5.00 to 6.00
O=c1ccn([C@@H]2O[C@](CCl)(COP(=O)(O)OP(=O)(O)OP(=O)(O)O)[C@@H](O)C2(F)F)c(=O)[nH]1 [Compound 222a]	4.00 to 5.00
C=C[C@]1(COP(=O)(O)OP(=O)(O)OP(=O)(O)O)O[C@@H](n2ccc(N)nc2=O)C(F)(F)[C@@H]1O [Compound 224a]	5.00 to 6.00
Nc1ccn([C@@H]2O[C@](CF)(COP(=O)(O)OP(=O)(O)OP(=O)(O)O)[C@@H](O)C2(F)F)c(=O)n1 [Compound 227a]	5.00 to 6.00
C#C[C@@]1(O)[C@H](O)[C@@](CF)(COP(=O)(O)OP(=O)(O)OP(=O)(O)O)O[C@H]1n1cnc2c(N)ncnc21 [Compound 230a]	> 6.00

Compound	pIC50
C[C@]1(O)[C@H](n2cnc3c(=O)[nH]c(N)nc32)O[C@](F)(COP(=O)(O)OP(=O)(O)OP(=O)(O)O)[C@H]1F [Compound 232a]	> 6.00
C#C[C@]1(O)[C@H](n2cnc3c(=O)[nH]c(N)nc32)O[C@](F)(COP(=O)(O)OP(=O)(O)OP(=O)(O)O)[C@H]1F [Compound 233a]	> 6.00
C#C[C@]1(O)[C@H](n2cnc3c(=O)[nH]c(N)nc32)O[C@](F)(COP(=O)(O)OP(=O)(O)OP(=O)(O)O)[C@H]1O [Compound 236a]	> 6.00
C#C[C@]1(F)[C@H](n2cnc3c(=O)[nH]c(N)nc32)O[C@](F)(COP(=O)(O)OP(=O)(O)OP(=O)(O)O)[C@H]1O [Compound 237a]	> 6.00
C[C@]1(O)[C@H](n2ccc(N)nc2=O)O[C@](F)(COP(=O)(O)OP(=O)(O)OP(=O)(O)O)[C@H]1O [Compound 238a]	> 6.00
C[C@]1(Cl)[C@H](n2ccc(=O)[nH]c2=O)O[C@](F)(COP(=O)(O)OP(=O)(O)OP(=O)(O)O)[C@H]1O [Compound 239a]	5.00 to 6.00
C[C@]1(F)[C@H](n2ccc(=O)[nH]c2=O)O[C@](F)(COP(=O)(O)OP(=O)(O)OP(=O)(O)O)[C@H]1O [Compound 242a]	4.00 to 5.00
C[C@@]1(Cl)[C@H](O)[C@@H](COP(=O)(O)OP(=O)(O)OP(=O)(O)O)O[C@H]1n1ccc(N)nc1=O [Compound 262a]	5.00 to 6.00
[N-]=[N+]=N[C@]1(COP(=O)(O)OP(=O)(O)OP(=O)(O)O)O[C@@H](n2ccc(=O)[nH]c2=O)[C@H](O)[C@@H]1O [Compound 264a]	> 6.00
[N-]=[N+]=N[C@]1(COP(=O)(O)OP(=O)(O)OP(=O)(O)O)O[C@@H](n2ccc(=O)[nH]c2=O)[C@H](F)[C@@H]1O [Compound 267a]	> 6.00
[N-]=[N+]=N[C@]1(COP(=O)(O)OP(=O)(O)OP(=O)(O)O)O[C@@H](n2cnc3c(=O)[nH]c(N)nc32)[C@H](O)[C@@H]1O [Compound 268a]	> 6.00
[N-]=[N+]=N[C@]1(COP(=O)(O)OP(=O)(O)OP(=O)(O)O)O[C@@H](n2cnc3c(=O)[nH]c(N)nc32)[C@H](F)[C@@H]1O [Compound 269a]	> 6.00
[N-]=[N+]=N[C@]1(COP(=O)(O)OP(=O)(O)OP(=O)(O)O)O[C@@H](n2ccc(N)nc2=O)[C@@H](O)[C@@H]1O [Compound 270a]	> 6.00
Nc1ccn([C@@H]2O[C@@](COP(=O)(O)OP(=O)(O)OP(=O)(O)O)(CC(F)F)[C@@H](O)[C@H]2F)c(=O)n1 [Compound 272a]	5.00 to 6.00
C#C[C@@]1(O)[C@H](O)[C@@H](COP(=O)(O)OP(=O)(O)OP(=O)(O)O)O[C@H]1n1cnc2c(N)ncnc21 [Compound 289a]	> 6.00
C#C[C@@]1(O)[C@H](O)[C@@H](COP(=O)(O)OP(=O)(O)OP(=O)(O)O)O[C@H]1n1cnc2c(=O)[nH]c(N)nc21 [Compound 290a]	> 6.00
C#C[C@@]1(O)[C@H](O)[C@@H](COP(=O)(O)OP(=O)(O)OP(=O)(O)O)O[C@H]1n1ccc2c(N)ncnc21 [Compound 292a]	> 6.00
C[C@]1(N=[N+]=[N-])[C@H](n2ccc(N)nc2=O)O[C@](F)(COP(=O)(O)OP(=O)(O)OP(=O)(O)O)[C@H]1O [Compound 302a]	5.00 to 6.00
C[C@]1(N)[C@H](n2ccc(N)nc2=O)O[C@](F)(COP(=O)(O)OP(=O)(O)OP(=O)(O)O)[C@H]1O [Compound 303a]	4.00 to 5.00
C[C@@]1(Cl)[C@H](O)[C@@](CF)(COP(=O)(O)OP(=O)(O)OP(=O)(O)O)O[C@H]1n1ccc(=O)[nH]c1=O [Compound 306a]	4.00 to 5.00
C#C[C@]1(F)[C@H](n2ccc(=O)[nH]c2=O)O[C@](F)(COP(=O)(O)OP(=O)(O)OP(=O)(O)O)[C@H]1O [Compound 313a]	5.00 to 6.00
Nc1ccn([C@@H]2O[C@@](COP(=O)(O)OP(=O)(O)OP(=O)(O)O)(C(F)F)[C@@H](O)[C@H]2F)c(=O)n1 [Compound 329a]	5.00 to 6.00
C=C[C@]1(O)[C@H](n2ccc(=O)[nH]c2=O)O[C@](F)(COP(=O)(O)OP(=O)(O)OP(=O)(O)O)[C@H]1O [Compound 330a]	5.00 to 6.00
N#C[C@@]1(n2ccc(=O)[nH]c2=O)O[C@](CF)(COP(=O)(O)OP(=O)(O)OP(=O)(O)O)[C@@H](O)[C@H]1O [Compound 331a]	> 6.00
N#C[C@@]1(n2ccc(N)nc2=O)O[C@](CF)(COP(=O)(O)OP(=O)(O)OP(=O)(O)O)[C@@H](O)[C@H]1O [Compound 332a]	> 6.00
C[C@]1(O)[C@H](n2cnc3c(N)ncnc32)O[C@](F)(COP(=O)(O)OP(=O)(O)OP(=O)(O)O)[C@H]1O [Compound 333a]	5.00 to 6.00
C[C@]1(COP(=O)(O)OP(=O)(O)OP(=O)(O)O)O[C@@H](n2cnc3c(=O)[nH]c(N)nc32)[C@H](O)[C@@H]1O [Compound 334a]	> 6.00
